Data as given in patent US20250170248A1, “SMARCA DEGRADERS AND USES THEREOF” (Kymera Therapeutics, Inc., priority 2021, published 2025).

Tests used:
Format in all cases: cell-based
SMARCA2 [1] = target: T1, SMARCA2 (Homo sapiens, UniProt P51531); assay: MSD SMARCA2 degradation in A549 cell line; settings: for Dmax: A549, A549 cells; for Dmax / DC50: 24 h; for DC50 / SMARCA2 MSD A549 degradation 24 h: Average Dmax %: A549 cells; for DC50: read-out: SMARCA2 MSD A549 degradation 24 h: Average external-Abs DC50
Procedure, shortened: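 SMARCA2 protein remaining after 24 h exposure of A549 cells (top concentration 1000 nM, 3-fold dilutions) was measured by MSD electrochemiluminescence immunoassay of cell lysates. Results are given as binned DC50 and maximal degradation (Dmax) codes.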

SMARCA4 = target: T2, SMARCA4 (Homo sapiens, UniProt P51532); assay: SMARCA4 Western blot degradation in MV4-11 cells; settings: for Dmax: MV4-11, MV4-11 cells, read-out: SMARCA4 MSD MV411 degradation 24 h: average Dmax %; for Dmax / DC50: 24 h; for DC50 / SMARCA4 MSD MV411 degradation 24 h: average Dmax %: MV4-11 cells; for DC50: read-out: SMARCA4 MSD MV411 degradation 24 h: Mean external-Abs DC50
T2 construct: SMARCA2/SMARCA4 protein degradation selectivity in MV4-11 cells; endogenous in cells; host or cells: MV4-11
Procedure, shortened: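 Protein levels quantified by LI-COR Western blot (beta-actin loading control) in RIPA lysates of MV4-11 cells after 24 h compound exposure. Degradation reported as DC50, Dmax % at 24 h and SMARCA2 vs SMARCA4 selectivity, each binned into letter codes.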

SMARCA2 [2] = target: T1, SMARCA2; assay: SMARCA2 Western blot degradation in MV4-11 cells; design: SMARCA2/SMARCA4 protein degradation selectivity in MV4-11 cells; endogenous in cells; host or cells: MV4-11; settings: for Dmax: MV4-11, MV4-11 cells, read-out: SMARCA2 MSD MV411 degradation 24 h: average Dmax %; for Dmax / DC50 / SMARCA2 MSD MV411 degradation 24 h: average Dmax %: 24 h; for DC50 / Selectivity in MV411 / SMARCA2 MSD MV411 degradation 24 h: average Dmax %: MV4-11 cells; for DC50: read-out: SMARCA2 MSD MV411 degradation 24 h: Mean external-Abs DC50; for Selectivity in MV411: SMARCA2/4 selectivity

T2 sequence (P51532 whole entry): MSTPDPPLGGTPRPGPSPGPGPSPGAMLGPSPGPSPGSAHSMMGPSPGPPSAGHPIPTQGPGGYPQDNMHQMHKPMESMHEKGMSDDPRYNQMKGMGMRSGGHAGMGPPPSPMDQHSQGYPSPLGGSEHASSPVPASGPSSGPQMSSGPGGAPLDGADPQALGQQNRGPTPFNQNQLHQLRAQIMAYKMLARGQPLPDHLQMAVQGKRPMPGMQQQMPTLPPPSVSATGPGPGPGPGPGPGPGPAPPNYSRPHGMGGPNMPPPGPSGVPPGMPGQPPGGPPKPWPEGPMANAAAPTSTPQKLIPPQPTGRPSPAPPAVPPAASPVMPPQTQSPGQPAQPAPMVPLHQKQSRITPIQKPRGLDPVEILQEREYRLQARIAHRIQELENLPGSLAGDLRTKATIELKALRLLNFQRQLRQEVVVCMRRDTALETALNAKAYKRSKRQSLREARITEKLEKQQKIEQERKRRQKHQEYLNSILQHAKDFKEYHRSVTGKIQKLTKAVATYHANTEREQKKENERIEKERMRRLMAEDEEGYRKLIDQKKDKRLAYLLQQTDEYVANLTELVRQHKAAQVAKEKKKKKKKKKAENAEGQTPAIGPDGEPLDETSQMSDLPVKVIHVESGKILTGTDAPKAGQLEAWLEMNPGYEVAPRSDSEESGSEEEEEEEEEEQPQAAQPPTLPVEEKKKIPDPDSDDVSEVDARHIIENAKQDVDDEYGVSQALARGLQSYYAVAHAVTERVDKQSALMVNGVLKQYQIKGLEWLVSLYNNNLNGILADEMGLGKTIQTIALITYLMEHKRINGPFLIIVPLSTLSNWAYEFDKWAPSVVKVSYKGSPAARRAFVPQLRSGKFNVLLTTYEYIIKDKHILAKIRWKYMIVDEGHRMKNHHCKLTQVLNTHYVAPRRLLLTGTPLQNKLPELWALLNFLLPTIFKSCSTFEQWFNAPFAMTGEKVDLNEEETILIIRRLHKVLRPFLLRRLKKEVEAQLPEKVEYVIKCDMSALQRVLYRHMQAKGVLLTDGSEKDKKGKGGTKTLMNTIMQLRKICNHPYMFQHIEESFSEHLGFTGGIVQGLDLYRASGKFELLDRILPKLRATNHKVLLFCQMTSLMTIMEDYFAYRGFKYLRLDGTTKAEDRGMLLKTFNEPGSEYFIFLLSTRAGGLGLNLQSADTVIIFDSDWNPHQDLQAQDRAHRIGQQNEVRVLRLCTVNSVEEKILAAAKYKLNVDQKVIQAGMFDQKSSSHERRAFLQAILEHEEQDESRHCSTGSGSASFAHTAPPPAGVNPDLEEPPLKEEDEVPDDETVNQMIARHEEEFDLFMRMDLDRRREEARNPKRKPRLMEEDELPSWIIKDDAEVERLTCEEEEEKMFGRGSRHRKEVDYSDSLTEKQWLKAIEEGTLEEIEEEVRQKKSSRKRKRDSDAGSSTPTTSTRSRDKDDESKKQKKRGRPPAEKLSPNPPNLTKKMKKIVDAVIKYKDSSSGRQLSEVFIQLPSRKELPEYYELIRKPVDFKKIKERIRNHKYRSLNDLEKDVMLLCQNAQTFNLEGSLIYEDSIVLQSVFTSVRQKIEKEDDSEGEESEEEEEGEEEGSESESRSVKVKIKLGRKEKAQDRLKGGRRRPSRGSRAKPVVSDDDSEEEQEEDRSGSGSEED
T1 sequence (P51531 whole entry): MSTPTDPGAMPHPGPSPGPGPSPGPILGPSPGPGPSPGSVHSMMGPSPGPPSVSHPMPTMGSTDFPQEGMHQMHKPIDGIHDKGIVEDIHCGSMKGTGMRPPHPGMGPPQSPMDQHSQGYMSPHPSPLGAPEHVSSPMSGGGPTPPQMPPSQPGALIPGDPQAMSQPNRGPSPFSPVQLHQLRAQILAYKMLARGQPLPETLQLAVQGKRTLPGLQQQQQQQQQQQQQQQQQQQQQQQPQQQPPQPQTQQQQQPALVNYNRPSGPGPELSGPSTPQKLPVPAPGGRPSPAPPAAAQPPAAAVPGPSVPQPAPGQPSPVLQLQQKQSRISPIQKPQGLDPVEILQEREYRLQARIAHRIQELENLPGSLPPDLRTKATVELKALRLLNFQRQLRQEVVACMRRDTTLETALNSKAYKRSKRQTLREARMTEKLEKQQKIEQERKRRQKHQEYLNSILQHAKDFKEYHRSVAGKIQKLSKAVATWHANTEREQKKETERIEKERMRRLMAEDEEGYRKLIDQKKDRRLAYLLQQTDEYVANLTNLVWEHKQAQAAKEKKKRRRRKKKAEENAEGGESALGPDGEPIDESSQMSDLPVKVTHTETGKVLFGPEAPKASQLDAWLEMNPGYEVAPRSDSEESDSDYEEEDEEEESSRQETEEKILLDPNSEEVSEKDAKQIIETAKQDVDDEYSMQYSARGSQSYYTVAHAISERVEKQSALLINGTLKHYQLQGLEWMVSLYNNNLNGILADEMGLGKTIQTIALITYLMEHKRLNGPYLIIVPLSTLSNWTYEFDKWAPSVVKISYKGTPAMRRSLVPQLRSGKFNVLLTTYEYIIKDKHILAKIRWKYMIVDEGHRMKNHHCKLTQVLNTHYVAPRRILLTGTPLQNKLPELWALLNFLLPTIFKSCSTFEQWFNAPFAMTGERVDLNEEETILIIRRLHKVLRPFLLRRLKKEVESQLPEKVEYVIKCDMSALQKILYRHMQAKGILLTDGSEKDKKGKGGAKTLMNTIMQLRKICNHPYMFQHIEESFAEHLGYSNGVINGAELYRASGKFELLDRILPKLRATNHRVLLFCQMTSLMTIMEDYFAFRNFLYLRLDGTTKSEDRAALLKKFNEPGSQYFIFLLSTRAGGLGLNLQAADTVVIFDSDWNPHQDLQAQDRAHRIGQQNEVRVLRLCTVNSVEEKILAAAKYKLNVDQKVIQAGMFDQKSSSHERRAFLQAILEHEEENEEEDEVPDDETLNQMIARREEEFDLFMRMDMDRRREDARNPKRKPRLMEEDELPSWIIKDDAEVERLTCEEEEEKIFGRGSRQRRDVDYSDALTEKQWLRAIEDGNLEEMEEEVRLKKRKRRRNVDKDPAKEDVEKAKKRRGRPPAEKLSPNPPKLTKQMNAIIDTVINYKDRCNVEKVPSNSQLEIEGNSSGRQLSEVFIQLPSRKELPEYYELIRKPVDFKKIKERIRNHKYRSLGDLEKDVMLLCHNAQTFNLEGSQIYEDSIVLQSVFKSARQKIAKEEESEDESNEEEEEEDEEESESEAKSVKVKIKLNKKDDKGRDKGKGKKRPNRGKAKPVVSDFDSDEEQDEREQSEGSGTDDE

Row | Structure (SMILES) | Dmax (SMARCA2 [1]) | DC50 (SMARCA2 [1]) | Dmax (SMARCA4) | DC50 (SMARCA4) | Dmax (SMARCA2 [2]) | DC50 (SMARCA2 [2]) | Selectivity in MV411 (SMARCA2 [2]) | SMARCA2 MSD A549 degradation 24 h: Average Dmax % (SMARCA2 [1]) | SMARCA4 MSD MV411 degradation 24 h: average Dmax % (SMARCA4) | SMARCA2 MSD MV411 degradation 24 h: average Dmax % (SMARCA2 [2])
1 | C#Cc1ccc(CNC(=O)[C@@H]2C[C@@H](O)CN2C(=O)[C@@H](NC(=O)CCCCCN2CCC(N3CC4(CC(N5CCN6c7cc(-c8ccccc8O)nnc7NC[C@H]6C5)C4)C3)CC2)C(C)(C)C)cc1 [I-251] | > 90% | > 100 nM | < 50% | > 100 nM | 70 to 90% | 10 to 100 nM | B (B (>100-500 fold)) | – | – | –
2 | C#Cc1ccc(CNC(=O)[C@@H]2C[C@@H](O)CN2C(=O)[C@@H](NC(=O)N2CCN(C[C@H]3CC[C@H](N4CCC(N5CCc6[nH]c7nnc(-c8ccccc8O)cc7c6[C@H]5C)CC4)CC3)CC2)C(C)(C)C)cc1 [I-194] | 70 to 90% | > 100 nM | < 50% | > 100 nM | < 50% | > 100 nM | C (C (10-100 fold)) | – | – | –
3 | C#Cc1ccc(CNC(=O)[C@@H]2C[C@@H](O)CN2C(=O)[C@@H](NC(=O)[C@H]2CCC3(CC2)C[C@H](N2CCC(N4CCC(N5CCN6c7cc(-c8ccccc8O)nnc7NC[C@H]6C5)CC4)CC2)C3)C(C)(C)C)cc1 (single isomer, unassigned) [I-175] | – | 50 to 100 nM | – | > 100 nM | – | 1 to 10 nM | B (B (>100-500 fold)) | A (A (>90% degradation)) | D (D (<50% degradation)) | B (B (>70-90% degradation))
4 | Cc1ncsc1-c1ccc(CNC(=O)[C@@H]2C[C@@H](O)CN2C(=O)C(c2cc(N3CCC(CCN4CCC(c5cnc(N6CCc7[nH]c8nnc(-c9ccccc9O)cc8c7[C@@H]6C)nc5)CC4)CC3)no2)C(C)C)cc1 (single isomer, unassigned) [I-8] | > 90% | 10 to 50 nM | 70 to 90% | 10 to 100 nM | 70 to 90% | 1 to 10 nM | D (D (<10 fold)) | – | – | –
5 | C#Cc1ccc(CNC(=O)[C@@H]2C[C@@H](O)CN2C(=O)[C@@H](NC(=O)N2CCN(C[C@H]3CC[C@H](N4CCc5[nH]c6nnc(-c7ccccc7O)cc6c5[C@H]4C)CC3)CC2)C(C)(C)C)cc1 [I-200] | > 90% | > 100 nM | < 50% | > 100 nM | 50 to 70% | 10 to 100 nM | C (C (10-100 fold)) | – | – | –
6 | C#Cc1ccc(CNC(=O)[C@@H]2C[C@@H](O)CN2C(=O)[C@@H](NC(=O)[C@H]2CC3(C2)C[C@H](N2CCN(C(=O)CCN4CCN5c6cc(-c7ccccc7O)nnc6NC[C@H]5C4)CC2)C3)C(C)(C)C)cc1 (stereo partly shown) [I-274] | > 90% | > 100 nM | > 90% | 10 to 100 nM | > 90% | 1 to 10 nM | C (C (10-100 fold)) | – | – | –
7 | C#Cc1ccc(CNC(=O)[C@@H]2C[C@@H](O)CN2C(=O)[C@@H](NC(=O)[C@H]2CCC3(CC2)C[C@H](N2CCC(N4CCC(N5CCN6c7cc(-c8ccccc8O)nnc7NC[C@H]6C5)CC4)CC2)C3)C(C)(C)C)c(OC)c1 (stereo partly shown) [I-178] | – | > 100 nM | – | > 100 nM | – | 10 to 100 nM | B (B (>100-500 fold)) | A (A (>90% degradation)) | C (C (50-70% degradation)) | B (B (>70-90% degradation))
8 | C#Cc1ccc(CNC(=O)[C@@H]2C[C@@H](O)CN2C(=O)[C@@H](NC(=O)N2CC3(CC(CN4CCC(c5cnc(N6CCc7[nH]c8nnc(-c9ccccc9O)cc8c7[C@H]6C)nc5)CC4)C3)C2)C(C)(C)C)cc1 [I-410] | > 90% | 10 to 50 nM | 70 to 90% | > 100 nM | 70 to 90% | 1 to 10 nM | C (C (10-100 fold)) | – | – | –
9 | C#Cc1ccc(CNC(=O)[C@@H]2C[C@@H](O)CN2C(=O)[C@@H](NC(=O)[C@H]2CCC3(CC2)C[C@H](N2CCN(c4cnc(N5CCN6c7cc(-c8ccccc8O)nnc7NC[C@H]6C5)nc4)CC2)C3)C(C)(C)C)c(OC)c1 (single isomer, unassigned) [I-196] | – | 10 to 50 nM | – | > 100 nM | – | 1 to 10 nM | C (C (10-100 fold)) | A (A (>90% degradation)) | C (C (50-70% degradation)) | B (B (>70-90% degradation))
10 | C#Cc1ccc(CNC(=O)[C@@H]2C[C@@H](O)CN2C(=O)[C@H](NC(=O)N2CC3(CC(N4CCC(c5cnc(N6CCc7[nH]c8nnc(-c9ccccc9O)cc8c7[C@H]6C)nc5)CC4)C3)C2)C(C)(C)CCN2CCN[C@H](C(=O)O)C2)cc1 [I-343] | < 50% | > 100 nM | < 50% | > 100 nM | < 50% | > 100 nM | C (C (10-100 fold)) | – | – | –
11 | Cc1ncsc1-c1ccc(CNC(=O)[C@@H]2C[C@@H](O)CN2C(=O)[C@@H](NC(=O)[C@H]2CC3(CC[C@H](N4CCN(c5ccnc(N6CCc7[nH]c8nnc(-c9ccccc9O)cc8c7[C@H]6C)n5)CC4)CC3)C2)C(C)(C)C)cc1 (stereo partly shown) [I-80] | > 90% | < 10 nM | > 90% | 1 to 10 nM | > 90% | < 1 nM | C (C (10-100 fold)) | – | – | –
12 | C#Cc1ccc(CNC(=O)[C@@H]2C[C@@H](O)CN2C(=O)[C@@H](NC(=O)[C@H]2CC3(C2)C[C@H](c2cnc(N4CCC(N5CCN6c7cc(-c8ccccc8O)nnc7NC[C@H]6C5)CC4)nc2)C3)C(C)(C)C)cc1 (stereo partly shown) [I-302] | – | 10 to 50 nM | – | 10 to 100 nM | – | 1 to 10 nM | C (C (10-100 fold)) | – | – | –
13 | C#Cc1ccc(CNC(=O)[C@@H]2C[C@@H](O)CN2C(=O)[C@@H](NC(=O)N2CCO[C@H](CN3CCC(N4CCC(N5CCN6c7cc(-c8ccccc8O)nnc7NC[C@H]6C5)CC4)CC3)C2)C(C)(C)C)cc1 [I-219] | 50 to 70% | > 100 nM | < 50% | > 100 nM | < 50% | > 100 nM | C (C (10-100 fold)) | – | – | –
14 | C#Cc1ccc(CNC(=O)[C@@H]2C[C@@H](O)CN2C(=O)[C@@H](NC(=O)N2CCN(C[C@H]3CCN(c4cnc(N5CCc6[nH]c7nnc(-c8ccccc8O)cc7c6[C@H]5C)nc4)C3)CC2)C(C)(C)C)cc1 (single isomer, unassigned) [I-162] | > 90% | > 100 nM | 50 to 70% | > 100 nM | 50 to 70% | 10 to 100 nM | C (C (10-100 fold)) | – | – | –
15 | C#Cc1ccc(CNC(=O)[C@@H]2C[C@@H](O)CN2C(=O)[C@@H](NC(=O)N2CCN(Cc3ccc(-c4cnc(N5CCN6c7cc(-c8ccccc8O)nnc7NC[C@H]6C5)nc4)cc3)CC2)C(C)(C)C)cc1 [I-269] | > 90% | 10 to 50 nM | 50 to 70% | > 100 nM | 70 to 90% | 10 to 100 nM | C (C (10-100 fold)) | – | – | –
16 | C#CCOc1cc(C(C(=O)N2C[C@H](O)C[C@H]2C(=O)NCc2ccc(-c3scnc3C)cc2O[C@H]2CC[C@H](N3CCC(c4cnc(N5CCc6[nH]c7nnc(-c8ccccc8O)cc7c6[C@@H]5C)nc4)CC3)CC2)C(C)C)on1 (single isomer, unassigned) [I-40] | 70 to 90% | > 100 nM | 70 to 90% | > 100 nM | 70 to 90% | 10 to 100 nM | D (D (<10 fold)) | – | – | –
